Experimental data: patent US9908912B2, “Triclosan derivatives and uses thereof” (priority 2012, dated 2018)

Key:
C. freundii = experiment: MIC in Nutrient Agar; type: cell-based, Citrobacter freundii; details: Nutrient Agar containing 0.1 μg/ml of inducer; 37° C., 24 hours
Procedure: (§1) The triclosan-glycosides were added to Nutrient Agar (Oxoid CM0003; Thermofisher Scientific) and organisms were transferred onto the plates surface using a multi-point inoculation device (Oxoid Cathra, Thermofisher Scientific). The latter is essentially a metal plate containing a number of needles. Each needle tip (usually 36 per plate) dips into an organism suspension (in phosphate buffered saline; PBS) and the needles are then moved over the agar plate and lowered onto its surface. In this way the growth of colonies of up to 36 different organisms can be observed on one plate.
(§2) Nutrient Agar No. 2 was prepared according to the manufacturers instructions, autoclaved and cooled to 50° C. Test compounds were then added as filter sterilised solutions (50:50 deionised water:ethanol), to give final concentrations from 256 μg/ml to 0 μg/ml in doubling dilutions. […] The mixtures were swirled then four plates (25 ml molten agar) were poured for each concentration. Plates were dried in a laminar flow cabinet then inoculated with overnight cultures of organisms that had been decimally diluted twice in sterile saline solution (approximately 10^7 cfu/ml) using a multi-point inoculator. Plates were then incubated at 37° C. for 24 hours. MICs were determined as the concentration at which no growth was observed.

Ps. aeruginosa = experiment: MIC in Nutrient Agar; type: cell-based; details: Nutrient Agar containing 0.1 μg/ml of inducer; 37° C., 24 hours
Procedure: as §1, §2

Bacillus subtilis = experiment: MIC in Nutrient Agar; type: cell-based; details: Nutrient Agar containing 0.1 μg/ml of inducer; 37° C., 24 hours
Procedure: as §1, §2

Bacillus cereus = experiment: MIC in Nutrient Agar; type: cell-based; details: Nutrient Agar containing 0.1 μg/ml of inducer; 37° C., 24 hours
Procedure: as §1, §2

Hafnia alvei = experiment: MIC in Nutrient Agar; type: cell-based; details: Nutrient Agar containing 0.1 μg/ml of inducer; 37° C., 24 hours
Procedure: as §1, §2

S. saprophyticus = experiment: MIC in Nutrient Agar; type: cell-based, Staphylococcus saprophyticus; details: Nutrient Agar containing 0.1 μg/ml of inducer; 37° C., 24 hours
Procedure: as §1, §2

[1] = system: Strep. pneumoniae ATCC 6305; experiment: MIC in Nutrient Broth No. 2; type: cell-based, Streptococcus pneumoniae; details: Nutrient Broth No. 2
Procedure: (§3) Bacteria species as indicated in Table 1 were incubated for approximately 24 hours at 37° C.
(§4) The tests were repeated with the addition of inducers. Methyl glycoside was the main inducer used, but other suitable inducers include isopropyl-β-D-thiogalactopyranoside, p-nitrophenyl-α-L-arabinopyranoside and p-nitrophenyl-β-D-xylopyranoside. Concentration of inducer in all cases was 100 μg/ml.

[2] = system: Kleb. aerogenes NCTC 88167; experiment: MIC in Nutrient Broth No. 2; type: cell-based, Klebsiella aerogenes; details: Nutrient Broth No. 2
Procedure: as §3, §4

[3] = system: Bacillus cereus ATCC 14579; experiment: MIC in Nutrient Broth No. 2; type: cell-based; details: Nutrient Broth No. 2
Procedure: as §3, §4

[4] = system: Serratia marcescens OCC 217; experiment: MIC in Nutrient Broth No. 2; type: cell-based; details: Nutrient Broth No. 2
Procedure: as §3, §4

[5] = system: Citrobacter freundii OCC 851; experiment: MIC in Nutrient Broth No. 2; type: cell-based; details: Nutrient Broth No. 2
Procedure: as §3, §4

[6] = system: Enterococcus faecium ATCC 19434; experiment: MIC in Nutrient Broth No. 2; type: cell-based; details: Nutrient Broth No. 2
Procedure: as §3, §4

[7] = system: Proteus mirabilis ATCC 12453; experiment: MIC in Nutrient Broth No. 2; type: cell-based; details: Nutrient Broth No. 2
Procedure: as §3, §4

Hafnia alvei ATCC 13337 = experiment: MIC in Nutrient Broth No. 2; type: cell-based; details: Nutrient Broth No. 2
Procedure: as §3, §4

Escherichia coli = experiment: MIC in Nutrient Broth No. 2; type: cell-based; details: 8 strains, Nutrient Broth No. 2
Procedure: as §3, §4

[8] = system: Aeromonas hydrophila OCC 778; experiment: MIC in Nutrient Broth No. 2; type: cell-based; details: Nutrient Broth No. 2
Procedure: as §3, §4

Proteus vulgaris OCC 195 = experiment: MIC in Nutrient Broth No. 2; type: cell-based; details: Nutrient Broth No. 2
Procedure: as §3, §4

[9] = system: Enterococcus faecalis ATCC 29212; experiment: MIC in Nutrient Broth No. 2; type: cell-based; details: Nutrient Broth No. 2
Procedure: as §3, §4

[10] = system: Enterobacter aerogenes ATCC 13048; experiment: MIC in Nutrient Broth No. 2; type: cell-based; details: Nutrient Broth No. 2
Procedure: as §3, §4

[11] = system: Ps. Aeruginosa ATCC 27853; experiment: MIC in Nutrient Broth No. 2; type: cell-based; details: Nutrient Broth No. 2
Procedure: as §3, §4

Salmonella [12] = experiment: MIC in Nutrient Broth No. 2; type: cell-based; details: 11 strains, Nutrient Broth No. 2
Procedure: as §3, §4

[13] = system: Bacillus subtilis NCTC 10073; experiment: MIC in Nutrient Broth No. 2; type: cell-based; details: Nutrient Broth No. 2
Procedure: as §3, §4

[14] = system: Crono. sakazakii ATCC 29544; experiment: MIC in Nutrient Broth No. 2; type: cell-based, Cronobacter sakazakii; details: Nutrient Broth No. 2
Procedure: as §3, §4

Staph. epidermidis = experiment: MIC in Nutrient Broth No. 2; type: cell-based, Staphylococcus epidermidis; details: 3 strains, Nutrient Broth No. 2
Procedure: as §3, §4

S. epidermidis = experiment: MIC in Nutrient Agar; type: cell-based, Staphylococcus epidermidis; details: 3 strains; Nutrient Agar containing 0.1 μg/ml of inducer; 37° C., 24 hours
Procedure: as §1, §2

[15] = system: Staph. haemolyticus OCC 2223; experiment: MIC in Nutrient Broth No. 2; type: cell-based, Staphylococcus haemolyticus; details: Nutrient Broth No. 2
Procedure: as §3, §4

Ent. cloacae = experiment: MIC in Nutrient Agar; type: cell-based, Enterobacter cloacae; details: Nutrient Agar containing 0.1 μg/ml of inducer; 37° C., 24 hours
Procedure: as §1, §2

Strep. viridans OCC 234 = experiment: MIC in Nutrient Broth No. 2; type: cell-based, Streptococcus viridans; details: Nutrient Broth No. 2
Procedure: as §3, §4

Ent. faecium = experiment: MIC in Nutrient Agar; type: cell-based, Enterococcus faecium; details: Nutrient Agar containing 0.1 μg/ml of inducer; 37° C., 24 hours
Procedure: as §1, §2

Staph. aureus = experiment: MIC in Nutrient Broth No. 2; type: cell-based, Staphylococcus aureus; details: 8 strains, Nutrient Broth No. 2
Procedure: as §3, §4

Aer. hydrophila = experiment: MIC in Nutrient Agar; type: cell-based, Aeromonas hydrophila; details: Nutrient Agar containing 0.1 μg/ml of inducer; 37° C., 24 hours
Procedure: as §1, §2

Salmonella [16] = experiment: MIC in Nutrient Agar; type: cell-based; details: 11 strains; Nutrient Agar containing 0.1 μg/ml of inducer; 37° C., 24 hours
Procedure: as §1, §2

Measured: MIC

OC[C@H]1O[C@H](Oc2cc(Cl)ccc2Oc2ccc(Cl)cc2Cl)[C@H](O)[C@@H](O)[C@H]1O [α-D-Galactoside, triclosan-α-D-galactopyranoside]
64 mg/L: C. freundii | [2]; with inducer 100 μg/ml | [5]; without inducer | Proteus vulgaris OCC 195; with inducer 100 μg/ml | Proteus vulgaris OCC 195; without inducer | [10]; with inducer 100 μg/ml | [14]; with inducer 100 μg/ml
32 mg/L: S. saprophyticus | [2]; without inducer | [7]; with inducer 100 μg/ml | [7]; without inducer | [15]; with inducer 100 μg/ml | Ent. cloacae
8 to 32 mg/L: Staph. epidermidis; without inducer
16 mg/L: Hafnia alvei ATCC 13337; without inducer | [15]; without inducer
256 mg/L: [1]; with inducer 100 μg/ml | [13]; without inducer
>256 mg/L: Ps. aeruginosa | Bacillus cereus | [3]; with inducer 100 μg/ml | [3]; without inducer | [4]; with inducer 100 μg/ml | [4]; without inducer | [6]; with inducer 100 μg/ml | [6]; without inducer | [8]; with inducer 100 μg/ml | [8]; without inducer | [9]; with inducer 100 μg/ml | [9]; without inducer | [11]; with inducer 100 μg/ml | [11]; without inducer | [13]; with inducer 100 μg/ml | Strep. viridans OCC 234; with inducer 100 μg/ml | Strep. viridans OCC 234; without inducer | Ent. faecium | Aer. hydrophila
8 mg/L: Hafnia alvei ATCC 13337; with inducer 100 μg/ml | S. epidermidis
4 to 256 mg/L: Staph. epidermidis; with inducer 100 μg/ml
16 to 64 mg/L: Escherichia coli; without inducer
32 to 128 mg/L: Salmonella [12]; with inducer 100 μg/ml
8 to 64 mg/L: Escherichia coli; with inducer 100 μg/ml
128 mg/L: Bacillus subtilis | [1]; without inducer | [5]; with inducer 100 μg/ml | [10]; without inducer | [14]; without inducer
4 mg/L: Hafnia alvei
8 to 16 mg/L: Staph. aureus; with inducer 100 μg/ml | Staph. aureus; without inducer
32 to 64 mg/L: Salmonella [12]; without inducer

OC[C@H]1O[C@H](Oc2cc(Cl)ccc2Oc2ccc(Cl)cc2Cl)[C@H](O)[C@@H](O)[C@@H]1O [α-D-Glucoside, triclosan-α-D-glucopyranoside]
256 mg/L: [6]; with inducer 100 μg/ml | [6]; without inducer | [8]; with inducer 100 μg/ml | [8]; without inducer
1 to 4 mg/L: Salmonella [16] | Escherichia coli; with inducer 100 μg/ml | Salmonella [12]; with inducer 100 μg/ml
>256 mg/L: Ps. aeruginosa | [4]; with inducer 100 μg/ml | [4]; without inducer | [11]; with inducer 100 μg/ml | [11]; without inducer
4 mg/L: C. freundii | S. saprophyticus | [2]; with inducer 100 μg/ml | [5]; with inducer 100 μg/ml | [5]; without inducer | Proteus vulgaris OCC 195; with inducer 100 μg/ml | Proteus vulgaris OCC 195; without inducer | [10]; with inducer 100 μg/ml | [14]; with inducer 100 μg/ml
16 mg/L: Bacillus subtilis | [1]; with inducer 100 μg/ml
0.5 to 1 mg/L: S. epidermidis
2 mg/L: [2]; without inducer | [7]; with inducer 100 μg/ml | [7]; without inducer
0.5 mg/L: Hafnia alvei
128 mg/L: [3]; with inducer 100 μg/ml | [3]; without inducer | [9]; with inducer 100 μg/ml | [9]; without inducer | Strep. viridans OCC 234; without inducer | Ent. faecium | Aer. hydrophila
64 mg/L: Bacillus cereus | Strep. viridans OCC 234; with inducer 100 μg/ml
1 mg/L: Hafnia alvei ATCC 13337; with inducer 100 μg/ml | Hafnia alvei ATCC 13337; without inducer | Staph. epidermidis; with inducer 100 μg/ml | Staph. epidermidis; without inducer | [15]; with inducer 100 μg/ml | [15]; without inducer | Ent. cloacae | Staph. aureus; with inducer 100 μg/ml | Staph. aureus; without inducer
2 to 8 mg/L: Escherichia coli; without inducer | Salmonella [12]; without inducer
8 mg/L: [10]; without inducer | [14]; without inducer
32 mg/L: [1]; without inducer | [13]; with inducer 100 μg/ml | [13]; without inducer

OC[C@H]1O[C@H](Oc2cc(Cl)ccc2Oc2ccc(Cl)cc2Cl)[C@@H](O)[C@@H](O)[C@@H]1O [α-D-Mannoside, triclosan-α-D-mannopyranoside]
2 to 8 mg/L: Staph. aureus; with inducer 100 μg/ml | Staph. aureus; without inducer
4 to 8 mg/L: Staph. epidermidis; with inducer 100 μg/ml | Staph. epidermidis; without inducer
8 mg/L: [7]; with inducer 100 μg/ml | S. epidermidis | [15]; with inducer 100 μg/ml | [15]; without inducer
16 to 32 mg/L: Salmonella [16]
8 to 32 mg/L: Salmonella [12]; with inducer 100 μg/ml
4 to 32 mg/L: Escherichia coli; with inducer 100 μg/ml
16 mg/L: [7]; without inducer | Ent. cloacae
128 mg/L: Bacillus cereus | [1]; with inducer 100 μg/ml | [13]; without inducer | [14]; without inducer | Strep. viridans OCC 234; with inducer 100 μg/ml | Strep. viridans OCC 234; without inducer
4 to 64 mg/L: Escherichia coli; without inducer
256 mg/L: Bacillus subtilis | [3]; with inducer 100 μg/ml | [3]; without inducer | [6]; with inducer 100 μg/ml | [6]; without inducer | [9]; with inducer 100 μg/ml | [9]; without inducer | [13]; with inducer 100 μg/ml | Ent. faecium | Aer. hydrophila
64 mg/L: C. freundii | [1]; without inducer | [5]; with inducer 100 μg/ml | [5]; without inducer
>256 mg/L: Ps. aeruginosa | [4]; with inducer 100 μg/ml | [4]; without inducer | [8]; with inducer 100 μg/ml | [8]; without inducer | [11]; with inducer 100 μg/ml | [11]; without inducer
16 to 64 mg/L: Salmonella [12]; without inducer
4 mg/L: Hafnia alvei | Hafnia alvei ATCC 13337; with inducer 100 μg/ml | Hafnia alvei ATCC 13337; without inducer
32 mg/L: S. saprophyticus | [2]; with inducer 100 μg/ml | [2]; without inducer | Proteus vulgaris OCC 195; with inducer 100 μg/ml | Proteus vulgaris OCC 195; without inducer | [10]; with inducer 100 μg/ml | [10]; without inducer | [14]; with inducer 100 μg/ml
